Each structure is given as a SMILES string.

Consider `COCCOCOc1ccc2cc(C(=O)O)ccc2c1`, for which the melting point (as a rule, the temperature, or range, at which the solid turns liquid) amounted to 110 °C.

The compound `C#Cc1cn(C2CC(OC(C)=O)C(COC(C)=O)O2)c(=O)[nH]c1=O` (configuration not stated) yielded a melting point of 152 to 154 °C.

For `CCCNC(=O)NS(=O)(=O)c1ccccc1-c1ccc(Cn2c(CCC)nc(C)c2C(=S)OCC)cc1`, the melting point lay within 160 to 165 °C.

`CCOC(=O)c1cc(=O)nc2n1-c1ccc(C)cc1OC2`: the melting point is 136 to 137 °C.

For `Cc1nc(-c2cnc(Cc3ccccc3)o2)sc1C(=O)NCc1ccccc1`, the melting point is 141 to 142 °C.

The compound `COc1cccc(C(O)c2nc3c(cc2C)CCCCC3)c1` (configuration not stated) yielded a melting point of 104 to 106 °C.

In the case of `N#CN1CCC(c2nn(-c3ccccc3)c3ccc(F)cc23)CC1`, the melting point fell in the range of 137 to 139 °C.

The compound `CC1CC(=O)NN=C1c1ccc(NC(=NC#N)NCc2ccccc2)cc1` (configuration not stated) showed a melting point of 228 to 229 °C.

The compound `Cc1noc(=O)c2ccc(NC(=O)C(=O)CC3(c4ccccc4)CC3)cc12` had a melting point of 155 to 156 °C.

`O=C(O)CCC(=O)Nc1cccc(-c2ccnc3c(C(=O)c4cccs4)cnn23)c1` gave a melting point of 240 to 241 °C.

Consider `COc1ccc(S(=O)(=O)N2c3ccc(Br)cc3-c3ccccc3C2c2ccccc2)cc1Br` (configuration not stated), for which the melting point lay within 205 to 207 °C.

`NC(=O)C1c2ccccc2SN1CCN1CCN(c2nsc3ccccc23)CC1` (configuration not stated) yielded a melting point of 160 to 163 °C.

Compound `CCCONC(=O)c1cc(OC)cc(Oc2cccc(C(F)(F)F)c2)n1` showed a melting point of 75 to 77 °C.

Consider `Cc1ccc(CC(CNC(=O)C(C)c2ccc(NS(C)(=O)=O)cc2)COC(=O)C(C)(C)C)cc1C` (configuration not stated), for which the melting point was 112 to 115 °C.

`CC1CC(=O)N(c2ccc(F)cc2)C(=S)C1` (configuration not stated) returned a melting point of 84.5 to 87.5 °C.

Consider `Clc1ccc2c(C3=CCN(CCCOc4cccc5[nH]ccc45)CC3)c[nH]c2c1Cl`, for which the melting point lay in the range of 224 to 227 °C.

For the compound `O=C(O)C(=O)c1ccc(OCCOc2ccc3ccccc3c2)c(F)c1`, the melting point is 168 to 169 °C.

As for `Cn1ncc2c1-c1c(Nc3ccccc3)sc(C(N)=O)c1CC2`, the melting point was in the range of 140 to 141 °C.

Compound `CC(=O)SCC(CSC(C)=O)C(=O)N1c2ccccc2CCC1C(=O)O` (configuration not stated) came in with a melting point of 149 to 151 °C.

As for `O=C(Oc1n[nH]c(=O)c2nc3cc(Cl)ccc3c(O)c12)c1ccccc1`, the melting point was in the range of 348 to 353 °C.

For `O=C(Nc1cccc(-n2nc(C(F)(F)F)cc2C(F)(F)F)c1)c1ccc(F)cc1F`, the melting point was in the range of 133 to 134 °C.

`CCCC1(OCCO)CCNCC1`: the melting point was 72 °C.

In turn, `N#Cc1nc(C=Cc2cnn(-c3c(Cl)cc(C(F)(F)F)cc3Cl)n2)[nH]c1C#N` came in with a melting point of 111 to 112 °C.

Regarding `CC1(C)C2CCC1(C)C(O)(c1ccccn1)C2` (configuration not stated), the melting point was in the range of 60 to 61 °C.

Compound `CCC/C(=C\C=C\C(=O)Oc1ccc([N+](=O)[O-])cc1)c1ccc(OC)cc1` displayed a melting point of 90 to 92 °C.

On to `CCS(=O)(=O)N(CCN(C)C(C)=O)c1ccc(N)cc1`, for which the melting point is 140 °C.

`CCCCCCCCCCCCCCCCCCc1cc(OC(=O)CC)ccc1O` displayed a melting point of 75 to 78 °C.

Turning to `CCOc1cc(C(=O)NC2CC(C)(C)NC(C)(C)C2)ccc1-c1nc2cc(Cl)c(Cl)cc2[nH]1`, the melting point is > 280 °C.

In turn, `O=c1c2ccccc2cc(Cl)n1-c1ccc(Cl)cc1` showed a melting point of 125 to 127 °C.

As for `O=C(CC1CCC1)N[C@H]1CC[C@H](CCN2CCN(c3nccc4c3CCO4)CC2)CC1`, the melting point worked out at 193 °C.

For the compound `COc1ccc(CC(=O)NC(NC(=NC#N)Nc2cc(C)ccc2C)C(C)(C)C)cc1OC` (configuration not stated), the melting point is 93 to 94 °C.

The compound `CC(C)(Cc1ccc(Cl)cc1)C(C#N)C(=O)O` (configuration not stated) had a melting point of 137 to 138 °C.

With `Clc1ccc(Cn2cc(C3(Cn4ccnc4)CCCC3)c3ccccc32)cc1`, the melting point fell in the range of 91 to 92 °C.

Turning to `N#Cc1nn(C2CCCC2)c2nc(-c3ccncc3)nc(N)c12`, the melting point fell in the range of 219 to 221 °C.

The compound `O=C(O)CC(Cc1ccccc1)NC(=O)C1Cc2ccccc2N1S(=O)(=O)c1ccc(-c2cccc(C(F)(F)F)c2)cc1` (configuration not stated) yielded a melting point of 78 to 82 °C.

Consider `COc1ccc2c(c1OC)CCC(NC(C)=O)C2O` (configuration not stated), for which the melting point was 184 to 186 °C.

In the case of `COC(=O)C1C(=O)Nc2cccc(C(F)(F)F)c2CC1c1ccccc1OC` (configuration not stated), the melting point fell in the range of 214 to 216 °C.

`COc1cc(OCCN2CCN(C)CC2)ccc1/C=C/c1cc(/C=C/c2ccc3cc[nH]c3c2)n[nH]1` came in with a melting point of 134 to 142 °C.

`COc1nc(C)cnc1NS(=O)(=O)c1cccnc1-c1ccc(CC(C)C)cc1` yielded a melting point of 128 to 129 °C.

On to `CCc1nnc2n1-c1ccc(I)cc1C(c1ccccc1F)=NC2`, for which the melting point fell in the range of 209 to 211 °C.

The compound `Cc1oc(-c2ccccc2)nc1CCOc1ccc(CCl)cc1` showed a melting point of 88 to 90 °C.

Take `N#CCNC(=O)C(F)(F)F`: the melting point lay within 39 to 40 °C.

`COc1cc(N)c(C)cc1N=Nc1ccc([N+](=O)[O-])cc1` returned a melting point of 136 to 137 °C.

Compound `COC(=O)COc1ccc([C@H]2c3ccc(O)cc3OC[C@H]2c2ccccc2)cc1` (racemic) yielded a melting point of 133 to 134 °C.

As for `CS(=O)(=O)c1ccc(-c2c(Cl)c3cccccc-3c2-c2ccccc2)cc1`, the melting point lay in the range of 140 to 142 °C.

For `Cc1nc2c(N)nc3ccccc3c2n1CCCNC(=O)C(C)C`, the melting point was 239 to 240 °C.

Compound `COc1ccc(-c2nc(-c3ccc4c(c3)OCO4)c(-c3ccc4c(c3)OCO4)[nH]2)c(OC)c1` returned a melting point of 95 °C.

In turn, `COCc1c(C(=O)OC(C)(C)C)ncc2[nH]c3ccc(OCc4ccccc4)cc3c12` had a melting point of 160 to 167 °C.

For the compound `O=C=Nc1ccc(Oc2cccc(Cl)n2)cc1`, the melting point was in the range of 96 to 97 °C.

Compound `CCOC(=O)c1conc1-c1ccc(F)c(Cl)c1` had a melting point of 108 to 109 °C.

Turning to `O=C(O)c1cccc2c1ccn2-c1ccnc(N[C@H]2CC[C@H](O)CC2)n1`, the melting point lay in the range of 259 to 261 °C.

`COC(=O)c1cc(C=O)cnc1C1=NC(C)(C(C)C)C(=O)N1` (configuration not stated) showed a melting point of 113 to 117 °C.

As to `CCCCC(=O)c1cc2oc(C(=O)O)cc2c(C)c1C`, the melting point is 188 to 189 °C.

Turning to `Cc1nn(CC(F)(F)COC(=O)CN(C)C)c(-c2ccc(F)cc2)c1-c1ccc2c(c1)NC(=O)CO2`, the melting point lay in the range of 153 to 155 °C.

For `CCCCCCCCCCCCCCCCCC(=O)NC(C)c1c[nH]c(CCCCCCCCCCCCCCCCC)n1` (configuration not stated), the melting point fell in the range of 76 to 82 °C.

The compound `CCC(=C(c1ccccc1)c1ccc(C=CC(=O)OC)cc1)c1ccccc1` yielded a melting point of 133 to 135 °C.

Turning to `N#Cc1ccc2[nH]cc(C3CCC(=O)CC3)c2c1`, the melting point lay in the range of 162 to 164 °C.

Consider `CCCCCCCCCCCCCCCCCCNC(=O)O[C@H]1CCCO[C@H]1CO` (relative stereo), for which the melting point lay in the range of 85 to 86 °C.

In turn, `CCOC(=O)N1CCC(=C2c3cc(F)ccc3CCc3cccnc32)CC1` had a melting point of 112 to 114 °C.

Consider `CN1CC=C(c2c[nH]c3ccc(Oc4ccccc4)cc23)CC1`, for which the melting point lay in the range of 135 to 137 °C.

With `CC(C)(C)c1ccc(-c2nc3ccc([N+](=O)[O-])cc3c(=O)o2)cc1`, the melting point is 159 to 161 °C.

For the compound `Cc1nccn1-c1nc(-c2ccc(Cl)c(Cl)c2)c(CCCO)o1`, the melting point was in the range of 140 to 141 °C.
